Laboratory results taken from US20100261246A1, “METHOD FOR INHIBITING TELOMERASE REACTION” (PANASONIC CORPORATION, priority 2009, published 2010).

What was measured:
single-stranded DNA = test: Absorbance 480 to 800 nm of phthalocyanine mixed with single-stranded DNA solution; type: binding; conditions: 15 μM compound solution, DNA 50 μM, pH7
Description: A solution of 50 mM HEPES and 100 mM NaCl, pH7 (total volume: 100 μL) containing a single-stranded DNA consisting of a sequence of 5′-[…]-3′ sequence (SEQ ID NO: 3) at a concentration of 50 μM was prepared, which was incubated at 90° C. for 5 min, and thereafter cooled to 0° C. at a rate of temperature fall of 2° C./min, followed by finally incubating at 0° C. for 2 hrs. The DNA in thus resulting solution was a single-stranded DNA even after the incubation (hereafter, the solution referred to as “single-stranded DNA solution”).
(§1) Next, the aforementioned CuPC solution and single-stranded DNA solution, and the aforementioned CuPC solution and double-stranded DNA solution were similarly mixed, respectively. And then the absorbance of these liquid mixtures was measured at 480 to 800 nm. FIG. 9(A) and FIG. 9(B) show the results of the measurement in the cases of the single-stranded DNA solution and the double-stranded DNA solution, respectively.
as §1, with “NiPC” for “CuPC”, “respectively;” for “respectively. And then”, “11(A)” for “9(A)”, “11(B)” for “9(B)”, “respectively. In each drawing, the result obtained when the NC solution was used is also shown together.” for “respectively.”
as §1, with “PC” for “CuPC”, “respectively;” for “respectively. And then”, “mixture” for “mixtures”, “13(A)” for “9(A)”, “13(B)” for “9(B)”, “respectively. In each drawing, the result obtained when the NC solution was used is also shown together.” for “respectively.”
as §1, with “CoPC” for “CuPC”, “respectively, and” for “respectively. And”, “15(A)” for “9(A)”, “15(B)” for “9(B)”, “respectively. In each drawing, the result obtained when the NC solution was used is also shown together.” for “respectively.”

[1] = test system: G-quadruplex structure (human telomeric oligo DNA); test: Absorbance 480 to 800 nm of phthalocyanine mixed with G-quadruplex solutions; type: binding; conditions: 15 μM compound solution, 50 mM HEPES, 100 mM NaCl, pH7
Description: Hereinafter, the interaction between anionic phthalocyanines and various DNAs was studied in Examples 6, 7, 8 and 9. For this purpose, a solution containing a G-quadruplex structure, a solution including a single-stranded DNA, and a solution containing a double-stranded DNA were first prepared according to the following procedures.
A solution of 50 mM HEPES and 100 mM NaCl, pH7 (total volume: 100 μL) containing a single-stranded DNA consisting of a sequence of 5′-[…]-3′ (SEQ ID NO: 2; this sequence being similar to a sequence of a human telomere portion, and thus the DNA referred to as “human telomeric oligo DNA” hereafter) was incubated at 90° C. for 5 min, and thereafter cooled to 0° C. at a rate of temperature fall of 2° C./min, followed by finally incubating at 0° C. for 2 hrs.
The concentrations of the human telomeric oligo DNA contained in the solution were 0, 0.5, 2, 5, 10, 25, 50 and 100 μM.
The absolute values of the positive and negative peaks were maximized for the solution having the human telomeric oligo DNA concentration of 100 μM, and dropped in the order of 50, 25, 10, 5, 2 and 0.5 μM. […] Hereafter, G-quadruplex solutions prepared from the solutions having human telomeric oligo DNA concentrations of 100, 50, 25, 10, 5, 2 and 0.5 μM are referred to as G-quadruplex solutions A, B, C, D, E, F and G, respectively. On the other hand, the solution without the human telomeric oligo DNA contained therein is referred to as NC solution.
First, a solution of 50 mM HEPES and 100 mM NaCl, pH7 (total volume: 20 μL) containing 15 μM CuPC was prepared. Then, this CuPC solution was mixed with each of the G-quadruplex solutions C, D, E and F and the NC solution, and the absorbance of these liquid mixtures were measured at 480 to 800 nm.
First, a solution of 50 mM HEPES and 100 mM NaCl, pH7 (total volume: 20 μL) containing 15 μM NiPC was prepared. Then, this NiPC solution was mixed with each of the G-quadruplex solutions D, E, F and G, and the NC solution, and the absorbance of these liquid mixtures were measured at 480 to 800 nm.
First, a solution of 50 mM HEPES and 100 mM NaCl, pH7 (total volume: 20 μL) containing 15 μM PC was prepared. Then, this PC solution was mixed with each of the G-quadruplex solutions D, E, F and G, and the NC solution, and the absorbance of these liquid mixtures were measured at 480 to 800 nm.
First, a solution of 50 mM HEPES and 100 mM NaCl, pH7 (total volume: 20 μL) containing 15 μM CoPC was prepared. Then, this CoPC solution was mixed with each of the G-quadruplex solutions B, C, D and G, and the NC solution, and the absorbance of these liquid mixtures were measured at 480 to 800 nm.

Substance | interaction with the single-stranded DNA (absorption spectrum vs NC solution) (single-stranded DNA) | interaction with the G-quadruplex structure (absorption peak) [1]
Copper(II) phthalocyanine-3,4′,4″,4′″-tetrasulfonic acid tetrasodium salt [CuPC] | an interaction did not occur | an interaction occurred
Nickel(II) phthalocyanine tetrasulfonic acid tetrasodium salt [NiPC] | an interaction did not occur | an interaction occurred
